# Experiments:
# blackgrass = assay: Test E blackgrass; type: in vivo, Alopecurus myosuroides; conditions: Preemergence
# green foxtail = assay: Test E green foxtail; type: in vivo, Setaria viridis; conditions: Preemergence
# winter wheat [1] = assay: Test E winter wheat; type: in vivo, Triticum aestivum; conditions: Preemergence
# bedstraw = assay: Test B pre/postemergence bedstraw; type: in vivo, Galium aparine; conditions: Preemergence; for Plant response rating, Bedstraw: Rate 62 g/ha, scale 0 to 10 (0 no effect, 10 complete control); for Bedstraw plant response rating (0 to 10 scale): Rate 125 g/ha; for Bedstraw plant response rating: scale of 0 to 10 where 0 is no effect and 10 is complete control
# Procedure, shortened: (§1)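 Herbicidal effect was estimated by eye on a ten-point control scale after plants spent twelve to sixteen days in a greenhouse following soil or foliar treatment. Foliar sprays targeted plants at one to four leaves; all doses were formulated in a non-phytotoxic solvent with surfactant.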
# surinam grass = assay: Test B pre/postemergence surinam grass; type: in vivo, Brachiaria decumbens; conditions: for B. signalgrass plant response rating: scale of 0 to 10 where 0 is no effect and 10 is complete control
# Procedure, shortened: as §1
# Italian ryegrass = assay: Test E Italian ryegrass; type: in vivo, Lolium multiflorum; conditions: Preemergence
# wild oat = assay: Test E wild oat; type: in vivo, Avena fatua; conditions: Preemergence
# winter barley = assay: Test E winter barley; type: in vivo, Hordeum vulgare; conditions: Preemergence
# winter wheat [2] = assay: Test E winter wheat; type: in vivo, Triticum aestivum; conditions: Postemergence, 0 to 100 scale, 0 is no effect, 100 is complete control
# Procedure, shortened: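 Greenhouse test: compounds in non-phytotoxic solvent with surfactant; for postemergence, sprayed on plants at 1- to 4-leaf stage grown in 60:40 sandy loam/potting mix. Injury rated visually against untreated controls after about 21 to 28 days.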
# crabgrass = assay: Test B pre/postemergence crabgrass; type: in vivo, Digitaria sanguinalis; conditions: for Crabgrass plant response rating: scale of 0 to 10 where 0 is no effect and 10 is complete control
# Procedure, shortened: as §1
# corn = assay: Test B pre/postemergence corn; type: in vivo, Zea mays; conditions: for Corn plant response rating: scale of 0 to 10 where 0 is no effect and 10 is complete control
# Procedure, shortened: as §1
# [3] = Rate 125 g/ha, 0 to 100 scale (0 no effect, 100 complete control)
# [4] = Rate 500 g/ha, 0 to 100 scale (0 no effect, 100 complete control)
# [5] = Postemergence, Rate 125 g/ha, scale 0 to 10, 0 is no effect, 10 is complete control
# [6] = Postemergence, Rate 250 g/ha, scale 0 to 10, 0 is no effect, 10 is complete control
# [7] = Preemergence, Rate 62 g/ha, scale 0 to 10 (0 no effect, 10 complete control)
# [8] = Rate 500 g/ha, Postemergence, scale 0 to 10, 0 no effect, 10 complete control
compound,measurement,setting,value
CC1CC1n1c(=O)on(C(=O)N(c2ccc(F)cc2F)C(C)C)c1=O (stereo not shown) [Compound 372],"Plant response rating, Blackgrass",blackgrass; [3],70
same,"Plant response rating, Blackgrass","blackgrass; Rate 250 g/ha, 0 to 100 scale",60
same,"Plant response rating, Blackgrass",blackgrass; [4],100
same,"Plant response rating, Green foxtail",green foxtail; [3],60
same,"Plant response rating, Green foxtail","green foxtail; Rate 250 g/ha, 0 to 100 scale",60
same,"Plant response rating, Green foxtail",green foxtail; [4],100
same,"Plant response rating, Wheat (winter)",winter wheat [1]; [3],60
same,"Plant response rating, Wheat (winter)","winter wheat [1]; Rate 250 g/ha, 0 to 100 scale",50
same,"Plant response rating, Wheat (winter)",winter wheat [1]; [4],70
same,"Plant response rating, Bedstraw",bedstraw,0
same,Bedstraw plant response rating (0 to 10 scale),bedstraw,2
same,Bedstraw plant response rating,bedstraw; Rate 250 g/ha,10
same,Bedstraw plant response rating,bedstraw; Rate 500 g/ha,10
same,"Plant response rating, B. signalgrass",surinam grass; [5],2
same,"Plant response rating, B. signalgrass",surinam grass; [6],4
same,"Plant response rating, B. signalgrass",surinam grass; [7],0
same,"B. signalgrass plant response rating (0 to 10 scale, 0 is no effect, 10 is complete control)","surinam grass; Preemergence, Rate 125 g/ha",4
same,B. signalgrass plant response rating,"surinam grass; Preemergence, Rate 250 g/ha",6
same,B. signalgrass plant response rating,"surinam grass; Preemergence, Rate 500 g/ha",8
same,B. signalgrass plant response rating,"surinam grass; Rate 62 g/ha, Postemergence",0
same,"Plant response rating, B. signalgrass",surinam grass; [8],7
same,"Plant response rating, I. Ryegrass",Italian ryegrass; [3],60
same,"Plant response rating, I. Ryegrass","Italian ryegrass; Rate 250 g/ha, 0 to 100 scale",70
same,"Plant response rating, I. Ryegrass",Italian ryegrass; [4],85
same,"Plant response rating, Wild oat",wild oat; [3],50
same,"Plant response rating, Wild oat","wild oat; Rate 250 g/ha, 0 to 100 scale",60
same,"Plant response rating, Wild oat",wild oat; [4],80
same,"Plant response rating, Barley (winter)",winter barley; [3],60
same,"Plant response rating, Barley (winter)","winter barley; Rate 250 g/ha, 0 to 100 scale, 0 no effect, 100 complete control",70
same,"Plant response rating, Barley (winter)",winter barley; [4],70
same,"Plant response rating, Wheat (winter)",winter wheat [2]; Rate 125 g/ha,65
same,"Plant response rating, Wheat (winter)",winter wheat [2]; Rate 250 g/ha,70
same,"Plant response rating, Wheat (winter)",winter wheat [2]; Rate 500 g/ha,80
same,"Plant response rating, Crabgrass",crabgrass; [5],2
same,"Plant response rating, Crabgrass",crabgrass; [6],8
same,"Plant response rating, Crabgrass",crabgrass; [7],8
same,Crabgrass plant response rating (0 to 10 scale),"crabgrass; Preemergence, Rate 125 g/ha",9
same,Crabgrass plant response rating,"crabgrass; Preemergence, Rate 250 g/ha",10
same,Crabgrass plant response rating,"crabgrass; Preemergence, Rate 500 g/ha",10
same,Crabgrass plant response rating,"crabgrass; Rate 62 g/ha, Postemergence",2
same,"Plant response rating, Crabgrass",crabgrass; [8],9
same,"Plant response rating, Corn",corn; [5],0
same,"Plant response rating, Corn",corn; [6],0
same,"Plant response rating, Corn",corn; [7],2
same,Corn plant response rating (0 to 10 scale),"corn; Preemergence, Rate 125 g/ha",2
same,Corn plant response rating,"corn; Preemergence, Rate 250 g/ha",9
same,Corn plant response rating,"corn; Preemergence, Rate 500 g/ha",9
same,Corn plant response rating,"corn; Rate 62 g/ha, Postemergence",0
same,"Plant response rating, Corn",corn; [8],3
CC(C)N(C(=O)n1oc(=O)n(CC2CCOC2)c1=O)c1ccc(F)cc1 (stereo not shown) [Compound 375],"Plant response rating, Blackgrass",blackgrass; [3],20
same,"Plant response rating, Blackgrass","blackgrass; Rate 250 g/ha, 0 to 100 scale",60
same,"Plant response rating, Blackgrass",blackgrass; [4],65
same,"Plant response rating, Green foxtail",green foxtail; [3],50
same,"Plant response rating, Green foxtail","green foxtail; Rate 250 g/ha, 0 to 100 scale",60
same,"Plant response rating, Green foxtail",green foxtail; [4],70
same,"Plant response rating, Wheat (winter)",winter wheat [1]; [3],30
same,"Plant response rating, Wheat (winter)","winter wheat [1]; Rate 250 g/ha, 0 to 100 scale",40
same,"Plant response rating, Wheat (winter)",winter wheat [1]; [4],50
same,"Plant response rating, Bedstraw",bedstraw,6
same,Bedstraw plant response rating (0 to 10 scale),bedstraw,10
same,Bedstraw plant response rating,bedstraw; Rate 250 g/ha,10
same,Bedstraw plant response rating,bedstraw; Rate 500 g/ha,10
same,"Plant response rating, B. signalgrass",surinam grass; [5],0
same,"Plant response rating, B. signalgrass",surinam grass; [6],2
same,"Plant response rating, B. signalgrass",surinam grass; [7],0
same,"B. signalgrass plant response rating (0 to 10 scale, 0 is no effect, 10 is complete control)","surinam grass; Preemergence, Rate 125 g/ha",0
same,B. signalgrass plant response rating,"surinam grass; Preemergence, Rate 250 g/ha",4
same,B. signalgrass plant response rating,"surinam grass; Preemergence, Rate 500 g/ha",8
same,B. signalgrass plant response rating,"surinam grass; Rate 62 g/ha, Postemergence",0
same,"Plant response rating, B. signalgrass",surinam grass; [8],8
same,"Plant response rating, I. Ryegrass",Italian ryegrass; [3],50
same,"Plant response rating, I. Ryegrass","Italian ryegrass; Rate 250 g/ha, 0 to 100 scale",70
same,"Plant response rating, I. Ryegrass",Italian ryegrass; [4],65
same,"Plant response rating, Wild oat",wild oat; [3],55
same,"Plant response rating, Wild oat","wild oat; Rate 250 g/ha, 0 to 100 scale",60
same,"Plant response rating, Wild oat",wild oat; [4],70
same,"Plant response rating, Barley (winter)",winter barley; [3],35
same,"Plant response rating, Barley (winter)",winter barley; [4],30
same,"Plant response rating, Wheat (winter)",winter wheat [2]; Rate 125 g/ha,35
same,"Plant response rating, Wheat (winter)",winter wheat [2]; Rate 250 g/ha,35
same,"Plant response rating, Wheat (winter)",winter wheat [2]; Rate 500 g/ha,50
same,"Plant response rating, Crabgrass",crabgrass; [5],4
same,"Plant response rating, Crabgrass",crabgrass; [6],7
same,"Plant response rating, Crabgrass",crabgrass; [7],7
same,Crabgrass plant response rating (0 to 10 scale),"crabgrass; Preemergence, Rate 125 g/ha",8
same,Crabgrass plant response rating,"crabgrass; Preemergence, Rate 250 g/ha",10
same,Crabgrass plant response rating,"crabgrass; Preemergence, Rate 500 g/ha",10
same,Crabgrass plant response rating,"crabgrass; Rate 62 g/ha, Postemergence",0
same,"Plant response rating, Crabgrass",crabgrass; [8],9
same,"Plant response rating, Corn",corn; [5],0
same,"Plant response rating, Corn",corn; [6],0
same,"Plant response rating, Corn",corn; [7],0
same,Corn plant response rating (0 to 10 scale),"corn; Preemergence, Rate 125 g/ha",2
same,Corn plant response rating,"corn; Preemergence, Rate 250 g/ha",2
same,Corn plant response rating,"corn; Preemergence, Rate 500 g/ha",7
same,Corn plant response rating,"corn; Rate 62 g/ha, Postemergence",0
same,"Plant response rating, Corn",corn; [8],2
